# Assay results reported in paper PMC3709818, “A Novel Perspective and Approach to Intestinal Octreotide Absorption: Sinomenine-Mediated Reversible Tight Junction Opening and Its Molecular Mechanism” (International Journal of Molecular Sciences, 2013).
# Structures can show the parent of a compound that is named as a salt.
# How the values were obtained:
# [1] = OCT transport across Caco-2 cell monolayers; format: in vitro ADME, human; conditions: Caco-2, 21 days, Transwell, 10 μM OCT with or without 0.5% SN, PBS pH 7.4, 120 min, 37 °C, LC-MS/MS, triplicate, mean ± s.d.
# Method: Caco-2 cells were seeded onto polycarbonate 12-well Transwell® filter inserts as described above. The OCT transport experiment was performed in the apical-to-basolateral directions in PBS adjusted to pH 7.4 [7]. A volume of 0.5 mL of 0.5% SN containing 10 μM OCT was added to the apical side of Caco-2 cell monolayers. The medium in the basolateral side was buffered by the addition of 1.5 mL PBS of each well. Samples of 0.1 mL were withdrawn at time intervals of 30, 60, 90 and 120 min from the basolateral side after the incubation of the solutions on the apical side of cell monolayers. The samples withdrawn were replaced with an equal volume of buffered PBS. Control experiments were performed using a solution of OCT alone. […]
# The results were corrected for dilution and plotted as the percentage cumulative OCT transported as a function of time. The apparent permeability coefficients (Papp) were calculated according to the following equation [33]: Papp = ΔQ/(Δt × A × C0) (cm/s), where ΔQ/Δt is the amount of OCT transported within a given time period or permeability rate (ng/min), A is the surface area of the cell monolayer on the insert (cm^2) and C0 is the initial drug concentration (ng/mL). Permeation enhancement ratios (R) were calculated from the Papp values using the following equation R = Papptest/Pappcontrol.
# [2] = system: Caco-2 cell monolayers; experiment: LDH release cytotoxicity assay; format: cell-based, human
# Method: To examine the toxic effects of SN to the Caco-2 cells, a lactate dehydrogenase (LDH) release assay was performed according to Madara and Stafford. The Caco-2 monolayer, which had been cultured in 24-well plates for 21 days, was washed with 500 μL of the PBS and was then incubated with 500 μL of the PBS containing the samples (0.5%, 1%, 2% w/v SN) to be tested at 37 °C for 120 min. Control experiments were performed under the same conditions but without SN. The amounts of LDH in the supernatant were determined using the enzymatic method and following the manufacturer’s instructions of LDH-Cytotoxic test kit from Nanjing KeyGEN Biotech. CO., Ltd. (Nanjing, China). Cytotoxicity was determined after 120 min of SN treatment, and the absorbance at 440 nm (reference wavelength was 650 nm) was measured to determine LDH activity. The cytotoxicity to the Caco-2 cell monolayers was expressed by the ratio of LDH released into the supernatant compared with the control group.
# The LDH activity was calculated thus: (U/L) = (ODu − ODc)/(ODs − ODb) × Cs × N × 1000, where ODu, ODc, ODs, ODb represent the absorbance of the test tube, control tube, standard tube, and background tube, respectively, C represents the standard concentration (2 mmol/L) and N represents the dilution ratio of the sample.
# [3] = system: Caco-2 cell monolayers; experiment: Transepithelial electrical resistance (TEER) measurement; format: cell-based, human
# Method: The cell monolayer integrity was examined by measuring the TEER and evaluating the cell permeability to FD-4 in Caco-2 cell monolayers. The experiments were performed after Caco-2 cells formed polarized monolayers. Cells were seeded onto polycarbonate 12-well Transwell® filter inserts (Corning Costar Corp., Cambridge, MA, USA; pore size 0.4 μm, growth area 1.12 cm^2) at a density of 1 × 10^6 cells/mL, and the cells were grown for 21 days before the TEER study was conducted. After the application of 0.5% SN, TEER was measured at time intervals of 20 min for a period of 120 min. Then, the reversibility of SN on TEER was measured by removing SN from the apical compartment and replacing it with serum-free DMEM for a further 120 min at 20-min intervals. To observe the effect of PKC to SN, cells in another group were treated with 0.5% SN and 10 μM Ro318220 (PKC inhibitor) together for 120 min at 20-min intervals. Control experiments were performed under the same conditions but without SN. All of the experiments were performed in triplicate at 37 °C in an atmosphere of 90% relative humidity and 5% CO2. The TEER measurements across Caco-2 cell monolayers were performed using a Millicell ERS instrument (Millipore, Bedford, MA, USA). The TEER values of these cells after treatment were recorded. Resistance due to the cell monolayers was determined in the presence and the absence of SN after subtracting the contribution of the blank filter. The percent change in TEER was calculated as follows:
# (1) TEER=(R1-R0)×A (Ω·cm^2)
# where R1 and R0 represent the TEER readings from the wells with cells and the no-cell background wells, respectively, and A (cm^2) represents the surface area of the cell monolayer on the insert.
# (2) TEER%=TEERtest/EERinitial×100
# [4] = system: Caco-2 cell monolayers; experiment: FD-4 permeability (paracellular flux); format: cell-based, human; conditions: 0.1% FD-4 apical, 0.5% SN with or without 10 μM Ro318220, up to 120 min, PBS pH 7.4, fluorescence
# Method: The integrity of the cell monolayer TJs was also examined by evaluating the FD-4 permeability in PBS adjusted to pH 7.4. A volume of 0.5 mL of 0.1% FD-4 containing 0.5% SN or 0.5% SN + 10 μM Ro318220 was added to the apical side of Caco-2 cell monolayers. The medium in basolateral side was buffered by the addition of 1.5 mL PBS to each well. Samples of 0.1 mL were withdrawn at time intervals of 30, 60, 90 and 120 min from the basolateral side after the incubation of the solutions on the apical side of cell monolayers. The samples withdrawn were replaced with an equal volume of buffered PBS. Control experiments were performed using a solution of 0.1% FD-4 alone. All of the experiments were performed in triplicate at 37 °C in an atmosphere of 90% relative humidity and 5% CO2. Basolateral solutions were then sampled and analyzed.
# Quantitative analysis of FD-4: Samples were centrifuged at 10,000 rpm for 10 min, and the supernatant was analyzed using a fluorescence spectrophotometer at an excitation wavelength of 495 nm and an emission wavelength of 520 nm (Hitachi, FP6500, Tokyo, Japan).
# Permeation clearance: ΔQ/(Δt × C0), where ΔQ/Δt is the permeation flux, i.e., the transport rate (μg/min), and C0 is the initial concentration on the donor side (μg/mL). Clearance was obtained per unit surface area and expressed as nL/min/cm2.
# [5] = system: claudin-1; experiment: Claudin-1 gene and protein expression (real-time PCR, western blot, immunofluorescence); format: cell-based, human; conditions: Caco-2 monolayers
# Method: Caco-2 cells were grown on 6-well plates for 21 days and were then treated with SN for 2 h. Then, SN was removed by washing the cells with PBS twice. The cells were grown with new culture medium for another 2 h. To observe the effect of PKC on SN, cells in another group were treated with 0.5% SN and 10 μM Ro318220 together for 2 h. Control experiments were performed under the same conditions but without SN. The gene level expressions induced by SN treatment and after its removal were investigated. Total RNA was extracted following a standard guanidinium phenol-chloroform extraction protocol. The quantity of mRNA was determined by measuring the optical density at 260 nm (A260 nm = 1 for 40 μg/mL RNA), and the purity of mRNA was assessed by determining the ratio of the optical density obtained at 260 and 280 nm (pure RNA: A260 nm/A280 nm = 2.0) using a UV-1206 spectrophotometer (Shimadzu, Tokyo, Japan). […] Quantitative real-time PCR was performed using the Applied Biosystems 7500 faster Real-Time PCR System with the SYBR® Premix Ex Taq™ (Tli RNaseH Plus) Master Mix purchased from Takara Bio Inc. (Dalian, China) in triplicate for each sample and each gene. […] The results were expressed as the folds of the CT value for the target mRNA to that of the β-actin mRNA. […]
# [6] = system: PKC-α; experiment: PKC-α translocation cytosol to membrane (western blot); format: cell-based, human; conditions: Caco-2 cells, 0.5% SN, 2 h
# Method: Caco-2 cells were grown on 6-well plates and were treated with SN as described above. After treatment, cytosolic, membrane and total protein were extracted following the manufacturer’s instructions of the test kit from Nanjing KeyGEN Biotech. CO., LTD (China). The protocols for western blot analyses have been described previously. The protein concentration was calculated using the BCA Protein Assay Kit from Nanjing KeyGEN Biotech. CO., LTD (China). Equal amounts of protein samples (30 μg protein) were separated onto SDS-polyacrylamide gels (PKC and β-actin were 12% gels, claudin-1 was 15% gels), and the separated proteins were transferred to a PVDF membrane. After blocking in 5% skim milk in Tris-buffered saline containing 0.05% Tween-20 (TTBS), the PVDF membrane was incubated overnight in blocking buffer with diluted primary antibodies: anti-claudin-1 (Abcam, Cambridge, MA, USA, 1:1000 dilution), anti-PKC-α (Beyotime Institute of Biotechnology, China, 1:500 dilution), and anti-β-actin (Zhongshan Goldenbridge Biological Technology, Beijing, China, 1:500 dilution), at 4 °C. […] The product bands were photographed, and the density of each product band was quantified. The intensity of each signal was corrected using the values obtained from the immunodetection of β-actin, and the relative protein intensity was expressed as folds of the content in the normal group.
# [7] = everted rat gut sac model; cited from earlier work
smiles,measurement,setting,value
"C[C@@H](O)[C@@H]1NC(=O)[C@H](CCCCN)NC(=O)[C@@H](Cc2c[nH]c3ccccc23)NC(=O)[C@H](Cc2ccccc2)NC(=O)[C@@H](NC(=O)[C@H](N)Cc2ccccc2)CSSC[C@@H](C(=O)N[C@H](CO)[C@@H](C)O)NC1=O [OCT, Octreotide]",Papp A→B,[1],2.67 ± 0.015 ×10⁻⁶ cm/s
"COC1=C[C@@H]2[C@@H]3Cc4ccc(OC)c(O)c4[C@]2(CCN3C)CC1=O [SN, Sinomenine hydrochloride]",LDH release vs control,"[2]; 0.5% w/v SN, 120 min, PBS 37 °C, Caco-2 monolayers cultured 21 days",did not differ from the control
same,cytotoxicity by LDH test,"[2]; 1% w/v SN, 120 min, Caco-2 monolayers",cytotoxic effects
same,LDH release vs control,"[2]; 2% w/v SN, 60 min, Caco-2 monolayers",markedly increased LDH activity
same,cytotoxicity by LDH test,"[2]; 2% w/v SN, 120 min, Caco-2 monolayers",cytotoxic effects
same,TEER recovery after SN removal vs control,"[3]; 0.5% SN 120 min, then removal, at 240 min",no difference compared with the control
same,effect on TEER at 120 min vs control,"[3]; 0.5% SN with or without 10 μM Ro318220, 120 min, Caco-2 monolayers, triplicate",strong reduction of TEER
same,TEER relative to the initial value,"[3]; 0.5% SN, 120 min incubation, pH 7.4, Caco-2 monolayers",43%
same,time for transient and reversible opening of TJ,"[3]; 0.5% SN, Caco-2 monolayers, recovery after removal",2 h
same,FD-4 flux (A-B),[4],time-dependent increase in FD-4 flux
same,claudin-1 expression after SN removal,"[5]; 0.5% SN 2 h, then 2 h after removal",returned to its normal level
same,claudin-1 gene and protein expression vs control,"[5]; 0.5% SN with or without 10 μM Ro318220, 2 h",distinct loss of claudin-1 gene
same,PKC-α distribution between cytosolic and membrane fraction,[6],most PKC-α was present in the membrane fraction
C[C@@]12C[C@@]3(O)O[C@@H](O1)[C@]1(COC(=O)c4ccccc4)[C@H]3C[C@@]12O[C@@H]1O[C@H](CO)[C@@H](O)[C@H](O)[C@H]1O [paeoniflorin],increase of paeoniflorin absorption when co-incubated with SN,[7],approximately 2.5 fold
